Measurements taken from US20240308973A1, “PHOSPHODIESTERASE 3 (PDE3) INHIBITORS” (Zoetis Services LLC, priority 2023, published 2024).
“And” between values parts separate entries of the source, which are not always exact repeats. Identical values can stand only once. Like-named read-outs stand apart in the source and are kept apart here.

Key:
[1] = tested on: adult human primary ventricular cardiomyocytes; assay: contractility amplitude (CA) assay; type: cell-based; details: for Contractility amplitude: vehicle 100, 1 Hz
Experimental: Further, Example #57 (30 μM) was tested in a contractility amplitude (CA) assay using adult human primary ventricular cardiomyocytes dissociated from human donor hearts to determine the potential of the compound to exert its positive inotropic effect by a single (Ca^2+ sensitization or inhibition of PDE3) or dual (Ca^2+ sensitization and inhibition of PDE3) mechanism of action. Cardiomyocytes were incubated at 35° C. under continuous perfusion (2 mL/minute) in a buffer (vehicle) solution (HEPES (10 mM), NaCl (145 mM), KCl (4 mM), MgCl2 1 mM), CaCl2) (1.8 mM) and dextrose (11.1 mM)) plus 0.1% DMSO). Cells were equilibrated for a minimum of 5 minutes and stimulated with 1.0 Hz with a 1.5× stimulation intensity. A 100 μM IBMX (3-isobutyl-1-methylxanthine) non-selective inhibitor of PDE was used. Treatment time and stimulation was 300 seconds at 1.0 Hz. Data was collected using MyoBLAZER™ (v 2.9.2) software. Equilibrated cells (n=12) were stimulated with supra-threshold voltage at 1 Hz pacing frequency (bipolar pulse of 3 ms duration). Starting at 1 V, the amplitude of the stimulating pulse was increased until the cardiomyocytes started generating contraction-relaxation cycles. Contractility amplitude was calculated from the average of the last 20 contractility transients. Contractility amplitude for vehicle, IBMX and IBMX with Example #57 was 100, 136.8 and 267.6, respectively. […] IBMX increased CA by inhibiting PDE, however, there was an even larger increase in CA in the presence of Ex #57. Additionally, the CA assay was used to assess the potential of Ex #57 to exert a shift in the calcium concentration EC50. […] From this second CA study, contractility of the myocytes was dose dependent on calcium concentration. Contractility at 100 μM, 1000 μM and 10,000 μM CaCl2 was 3.11, 56.31 and 228.61, respectively. With the addition of 30 μM Ex #57, respective contractility values increased to 40.17, 182.67 and 284.27.

[2] = biological target: dog PDE3A recombinant enzyme (Canis lupus familiaris, UniProt A0A8I3NYE0); assay: cPDE3A assay (fluorescent polarization); type: biochemical; details: canine PDE3A, read-out: cPDE3 Inhibition (IC50)
Experimental: cPDE3A Assay (Fluorescent Polarization)
The canine PDE3A assay kit was purchased from BPS Bioscience (San Diego, CA) which included dog PDE3A recombinant enzyme, FAM-cyclic-3′,5′-AMP (20 μM), PDE3 assay buffer, binding agent, binding agent diluent and microtiter 96-well plates. Compounds were initially dissolved in DMSO. The stock concentration was subsequently diluted in cPDE assay buffer (10× stock) and serially diluted to give a concentration response curve starting at 10 μM (≥7 total concentrations). Following the serial dilution, compound solution (0.1% final DMSO) was transferred to an assay plate (96-well) where the remaining canine PDE3A assay reagents were dispensed according to the BPS Bioscience® protocol (catalog #79735) procedure using a final concentration of 5 pg/μL of enzyme. Each compound was evaluated for the inhibition of the canine PDE3A enzyme activity using the measurement of fluorescent polarization changes. The 50% inhibition concentration (IC50) nM was calculated and reported.

[3] = Dog plasma half-life after oral dose; type: in vivo; details: Beagle dogs, plasma over 72 hours, read-out: t½ (hrs), Dog Plasma Compound Half-life (converted)
Experimental: Lastly, plasma half-life was assessed for a number of compounds in dogs. Beagle dogs were given an oral dose (0.1 mg/kg) of the respective compound accounting for a dose amount of about 1 mg/dog. Pimopendan was administered at a 0.3 mg/kg dose.

NT-proBNP = NT-proBNP circulating biomarker reduction; type: in vivo, canine; details: for reduced NT-proBNP levels: over a 12 hour period
Experimental: NT-proBNP is a standard circulating biomarker of canine MMVD secreted by ventricular cardiomyocytes in response to stretching from volume or pressure overload. It is a well-defined diagnostic and prognostic biological indicator of myocardial wall stress and can be used as a biomarker for acute changes in left ventricular loading conditions. […] In one instance, Example #26 had reduced NT-proBNP levels by 49% and 62% at doses of 0.03 and 0.1 mg/kg, respectively, over a 12 hour period.

[4] = tested on: human iCell cardiomyocytes; assay: Human iPS cardiomyocyte contractility assay; type: cell-based; details: human cardiomyocytes chronically paced (2 Hz)
Experimental: Human iPS Cardiomyocyte Contractility Assay
Frozen human iCell® cardiomyocytes (FujiFilm® Cellular Dynamics Inc.) were thawed and plated in the center of each well of an Axion® Biosystems cytoview 24-well microelectrode array plate that was coated with human fibronectin in a 5-6 μL droplet at a density of 7-10×10^6 cells/mL. The cells were maintained in culture in a 37° C. humidified incubator at 5% CO2. After at least seven days in culture with maintenance media changes every 2-3 days, the cells were paced at 2 Hz for approximately 48 hours on the Axion® Biosystems Maestro Pro instrument using the field potential application in the Axis Navigator software before returning to the spontaneous beating for at least 10 minutes in the contractility application (i.e., Axion® Biosystems procedure for Positive Inotropy Protocol). […] Readings were taken at 3, 13, 23, 33, 43 and 53 minutes. […] Each compound was evaluated for the contractility response relative to the vehicle control (DMSO). […]
Myocardial contractility represents the innate ability of the heart muscle to contract. […] Cardiomyocyte contractibility of the compounds of the invention, as defined by changes in mean % delta beat amplitude, were determined to have a positive inotropic effect (i.e., a stronger cardiac muscle contraction force).

PDE3 = details: JMC Vol. 35, 1992; cited from earlier work
[5] = orally administered; cited from earlier work
calcium sensitization = details: JMC Vol. 35, 1992; cited from earlier work

Sequence of dog PDE3A recombinant enzyme (A0A8I3NYE0 1-1135): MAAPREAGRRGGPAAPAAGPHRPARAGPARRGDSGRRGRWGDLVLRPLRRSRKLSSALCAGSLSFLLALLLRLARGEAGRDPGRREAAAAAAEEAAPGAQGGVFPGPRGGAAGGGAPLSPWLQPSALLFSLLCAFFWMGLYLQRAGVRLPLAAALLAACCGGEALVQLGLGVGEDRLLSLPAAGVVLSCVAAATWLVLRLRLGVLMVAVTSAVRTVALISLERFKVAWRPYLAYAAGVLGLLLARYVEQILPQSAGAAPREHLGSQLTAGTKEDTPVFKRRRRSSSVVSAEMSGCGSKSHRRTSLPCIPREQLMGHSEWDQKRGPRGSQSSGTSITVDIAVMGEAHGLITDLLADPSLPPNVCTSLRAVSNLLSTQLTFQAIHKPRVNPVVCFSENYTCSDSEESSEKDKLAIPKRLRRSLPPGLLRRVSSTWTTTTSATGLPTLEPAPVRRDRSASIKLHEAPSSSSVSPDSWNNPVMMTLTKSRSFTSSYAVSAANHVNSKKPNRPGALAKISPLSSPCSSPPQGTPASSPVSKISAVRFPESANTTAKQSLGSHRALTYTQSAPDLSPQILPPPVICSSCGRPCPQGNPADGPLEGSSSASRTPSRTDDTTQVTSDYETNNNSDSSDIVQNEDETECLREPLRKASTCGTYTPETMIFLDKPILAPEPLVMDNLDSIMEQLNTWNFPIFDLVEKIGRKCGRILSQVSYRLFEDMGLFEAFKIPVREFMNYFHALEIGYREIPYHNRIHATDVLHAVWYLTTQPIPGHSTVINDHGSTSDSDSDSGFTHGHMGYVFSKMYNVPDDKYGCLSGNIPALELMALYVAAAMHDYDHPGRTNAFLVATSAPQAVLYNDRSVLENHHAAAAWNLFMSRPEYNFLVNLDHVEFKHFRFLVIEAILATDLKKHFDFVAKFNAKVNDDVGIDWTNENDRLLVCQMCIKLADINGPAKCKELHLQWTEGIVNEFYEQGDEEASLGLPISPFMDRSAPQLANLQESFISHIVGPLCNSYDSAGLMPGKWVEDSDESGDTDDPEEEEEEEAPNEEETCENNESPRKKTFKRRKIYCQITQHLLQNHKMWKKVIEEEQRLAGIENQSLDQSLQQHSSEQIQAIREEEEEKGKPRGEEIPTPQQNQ

| IC50 [2] | half-life ([3]; oral dose 0.1 mg/kg) | Compound | also measured |
| --- | --- | --- | --- |
|  |  | CC(C)Cn1c(=O)n(C)c(=O)c2[nH]cnc21 [IBMX, 3-isobutyl-1-methylxanthine, reference compound] | Contractility amplitude ([1]; 100 μM IBMX alone): 136.8 |
| 3.6 nM | 15 h | CC1SC(=O)NN=C1c1cc(Cl)c2[nH]c(=O)sc2c1 (stereo not drawn) [Example #56, 4-chloro-6-(6-methyl-2-oxo-3,6-dihydro-2H-1,3,4-thiadiazin-5-yl)benzo[d]thiazol-2 (3H)-one] |  |
| 8.4 nM | 7 h | CC1SC(=O)NN=C1c1cc(Cl)c2c(c1)C1(CC1)C(=O)N2 (stereo not drawn) [Example #58, 5-(7′-chloro-2′-oxospiro[cyclopropane-1,3′-indolin]-5′-yl)-6-methyl-3,6-dihydro-2H-1,3,4-thiadiazin-2-one] |  |
| 14.2 nM | 10 h | CC1SC(=O)NN=C1c1cc(F)c2c(c1)CC(=O)N2 (stereo not drawn) [Example #57, 5-(7-fluoro-2-oxoindolin-5-yl)-6-methyl-3,6-dihydro-2H-1,3,4-thiadiazin-2-one] | Contractility ([1]; 100 μM CaCl2 with 30 μM Ex #57 (3.11 without)): 40.17; Contractility amplitude ([1]; 100 μM IBMX with 30 μM Example #57): 267.6; Contractility ([1]; 1000 μM CaCl2 with 30 μM Ex #57 (56.31 without)): 182.67; Contractility ([1]; 10,000 μM CaCl2 with 30 μM Ex #57 (228.61 without)): 284.27; EC50 ([1]; Homo sapiens, Cardiomyocyte, without Ex #57 1286 μM, read-out: calcium concentration EC50 with Ex #57): 821000 nM |
| 7.4 nM |  | CC1CC(=O)NN=C1c1cc(F)c2c(c1)C(C)(C)C(=O)N2 (stereo not drawn) [Example #26, 7-fluoro-3,3-dimethyl-5-(4-methyl-6-oxo-1,4,5,6-tetrahydropyridazin-3-yl)indolin-2-one] | reduced NT-proBNP levels (NT-proBNP; 0.03 mg/kg): 49%; reduced NT-proBNP levels (NT-proBNP; 0.1 mg/kg): 62% |
| ~1530 nM and 1530 nM |  | COc1ccc(-c2nc3ccc(C4=NNC(=O)CC4C)cc3[nH]2)cc1 (racemic) [pimobendan, 6-(2-(4-methoxyphenyl)-1H-benzo[d]imidazol-6-yl)-5-methyl-4,5-dihydropyridazin-3 (2H)-one] | contractility of cardiomyocytes (changes in mean % delta beat amplitude) [4]: dose dependently increases contractility; half-life ([3]; oral, 0.3 mg/kg dose): 0.4 h; decrease in NT-proBNP (NT-proBNP; labeled dose, 24 hours post dose): 41%; IC50 (PDE3): 560 nM; bioavailability [5]: 60-65%; elimination half-life [5]: ~1.6 h; tmax [5]: about 2 hours |
|  |  | CC1(C)C(=O)Nc2ccc(C3=NNC(=O)CC3)cc21 [indolidan] | IC50 (PDE3): 520 nM; calcium-sensitizing properties (calcium sensitization): lacked calcium-sensitizing properties |
| 90.9 nM | 10.4 h | CC1CC(=O)NN=C1c1cc2c(c(-c3cccc(F)c3)c1)NC(=O)CC2 (stereo not drawn) [Example #12, 8-(3-fluorophenyl)-6-(4-methyl-6-oxo-1,4,5,6-tetrahydropyridazin-3-yl)-3,4-dihydroquinolin-2 (1H)-one] |  |
| 49.7 nM | 9 h | CC1(C)C(=O)Nc2c(Cl)cc(-c3cnc4c(c3)CC(=O)N4)cc21 [Example #85, 5-(7-chloro-3,3-dimethyl-2-oxoindolin-5-yl)-1,3-dihydro-2H-pyrrolo[2,3-b]pyridin-2-one] |  |
| 22.2 nM | 5.2 h | CC1(C)C(=O)Nc2c(F)cc(C3=NNC(=O)SC3)cc21 [Example #59, 5-(7-fluoro-3,3-dimethyl-2-oxoindolin-5-yl)-3,6-dihydro-2H-1,3,4-thiadiazin-2-one] |  |
| 3.8 nM | 3.2 h | Cc1cc(C2=NNC(=O)SC2C)cc2sc(=O)[nH]c12 (stereo not drawn) [Example #55, 4-methyl-6-(6-methyl-2-oxo-3,6-dihydro-2H-1,3,4-thiadiazin-5-yl)benzo[d]thiazol-2 (3H)-one] |  |
| 15.2 nM | 40 h | CC1SC(=O)NN=C1c1cc(Br)c2c(c1)C(C)(C)C(=O)N2 (stereo not drawn) [Example #76, 5-(7-bromo-3,3-dimethyl-2-oxoindolin-5-yl)-6-methyl-3,6-dihydro-2H-1,3,4-thiadiazin-2-one] |  |
| 15.7 nM | 50 h | CC1(C)C(=O)Nc2c(Cl)cc(-c3ccc(=O)[nH]n3)cc21 [Example #25, 7-chloro-3,3-dimethyl-5-(6-oxo-1,6-dihydropyridazin-3-yl)indolin-2-one] |  |
| 13.3 nM | 55 h | CC1SC(=O)NN=C1c1cc(F)c2c(c1)C(C)(C)C(=O)N2 (stereo not drawn) [Example #74, 5-(7-fluoro-3,3-dimethyl-2-oxoindolin-5-yl)-6-methyl-3,6-dihydro-2H-1,3,4-thiadiazin-2-one] |  |
